Measured values reported in PMC5148682 (European journal of medicinal chemistry, 2016).

How the values were obtained:
M tuberculosis (H37Rv) = experiment: MIC by modified microplate Alamar blue assay; format: cell-based
E. coli topoisomerase I = E. coli topoisomerase I (Escherichia coli, UniProt P06612); experiment: E. coli topoisomerase I relaxation activity inhibition assay; format: biochemical
Human topoisomerase I = molecular target: T1, Human topoisomerase I (Homo sapiens, UniProt P11387); experiment: Human topoisomerase I relaxation inhibition assay; format: biochemical
T1 sequence (P11387 1-765): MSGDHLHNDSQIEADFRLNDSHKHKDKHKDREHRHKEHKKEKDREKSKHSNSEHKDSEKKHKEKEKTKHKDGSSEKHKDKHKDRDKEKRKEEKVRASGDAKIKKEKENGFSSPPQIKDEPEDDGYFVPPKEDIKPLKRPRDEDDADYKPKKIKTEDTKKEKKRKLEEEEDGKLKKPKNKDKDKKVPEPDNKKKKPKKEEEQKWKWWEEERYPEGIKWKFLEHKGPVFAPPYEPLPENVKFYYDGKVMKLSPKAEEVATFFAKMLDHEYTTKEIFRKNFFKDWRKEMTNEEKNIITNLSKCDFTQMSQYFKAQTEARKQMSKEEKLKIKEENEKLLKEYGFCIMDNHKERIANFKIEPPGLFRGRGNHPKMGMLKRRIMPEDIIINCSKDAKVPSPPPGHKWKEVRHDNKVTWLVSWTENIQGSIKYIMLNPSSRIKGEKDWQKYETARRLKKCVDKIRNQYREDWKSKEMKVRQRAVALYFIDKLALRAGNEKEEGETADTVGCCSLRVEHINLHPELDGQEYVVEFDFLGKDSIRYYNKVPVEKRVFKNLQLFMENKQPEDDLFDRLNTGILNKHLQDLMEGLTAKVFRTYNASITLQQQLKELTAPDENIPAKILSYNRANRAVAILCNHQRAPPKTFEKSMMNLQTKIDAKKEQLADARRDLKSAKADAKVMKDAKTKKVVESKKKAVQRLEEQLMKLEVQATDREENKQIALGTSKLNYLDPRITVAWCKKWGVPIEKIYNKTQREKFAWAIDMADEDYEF

E. coli (MG1655) WT = experiment: MIC by broth microdilution, wild-type E. coli; conditions: Escherichia coli, MG1655, read-out: Whole cell based antibacterial activity (MIC, µM) E. coli (MG1655) WT

Chain of E. coli topoisomerase I (P06612 whole entry): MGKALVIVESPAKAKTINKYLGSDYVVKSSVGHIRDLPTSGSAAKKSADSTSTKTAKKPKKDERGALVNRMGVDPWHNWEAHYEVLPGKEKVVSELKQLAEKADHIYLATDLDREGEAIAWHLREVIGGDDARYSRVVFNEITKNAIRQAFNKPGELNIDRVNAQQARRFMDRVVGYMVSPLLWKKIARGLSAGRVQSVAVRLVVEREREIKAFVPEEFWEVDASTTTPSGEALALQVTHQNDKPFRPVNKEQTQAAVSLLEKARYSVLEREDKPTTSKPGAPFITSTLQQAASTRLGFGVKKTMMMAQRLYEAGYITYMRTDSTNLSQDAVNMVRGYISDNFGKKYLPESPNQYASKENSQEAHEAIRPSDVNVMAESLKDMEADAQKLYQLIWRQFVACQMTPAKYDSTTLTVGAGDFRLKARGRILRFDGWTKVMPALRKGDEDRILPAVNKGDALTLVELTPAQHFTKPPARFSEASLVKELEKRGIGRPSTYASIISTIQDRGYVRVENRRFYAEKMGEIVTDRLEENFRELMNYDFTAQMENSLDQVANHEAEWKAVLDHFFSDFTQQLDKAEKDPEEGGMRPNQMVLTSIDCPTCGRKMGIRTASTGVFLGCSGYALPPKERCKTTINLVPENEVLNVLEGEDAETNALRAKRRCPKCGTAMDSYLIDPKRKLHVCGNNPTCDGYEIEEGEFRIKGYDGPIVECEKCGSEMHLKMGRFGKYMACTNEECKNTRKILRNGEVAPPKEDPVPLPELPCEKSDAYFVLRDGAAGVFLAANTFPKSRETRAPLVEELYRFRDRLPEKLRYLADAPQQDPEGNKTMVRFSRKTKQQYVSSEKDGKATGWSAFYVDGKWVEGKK

Nc1ccc2c(c1)Oc1c(N3CC[C@H](N)C3)c(F)cc3c(=O)c(C(=O)O)cn-2c13 [Compound 17a, (S)-9-amino-6-(3-aminopyrrolidin-1-yl)-5-fluoro-3-oxo-3H–pyrido[3,2,1-kl]phenoxazine-2-carboxylic acid]
Whole cell based antibacterial activity (MIC, µM) M tuberculosis (H37Rv) (M tuberculosis (H37Rv); MABA): >63.1 µM | MIC (M tuberculosis (H37Rv); Mycobacterium tuberculosis, H37RV, read-out: Whole cell based antibacterial activity (MIC, µM) M tuberculosis (H37Rv)): > 63.1 µM

O=C(O)c1cn2c3c(c(F)c(F)cc3c1=O)Oc1cc(C(F)(F)F)ccc1-2 [Compound 7c, 5,6-Difluoro-3-oxo-9-(trifluoromethyl)-3H–pyrido[3,2,1-kl]phenoxazine-2-carboxylic acid]
IC50 (E. coli topoisomerase I; IC50 (µM), E. coli topoisomerase I, value as used in the CoMFA dataset (Table 2)): > 125 µM

Nc1ccc2c(c1)Oc1c(NCCN3CCOCC3)c(F)cc3c(=O)c(C(=O)O)cn-2c13 [Compound 11h, 9-Amino-5-fluoro-6-((2-morpholinoethyl)amino)-3-oxo-3H–pyrido[3,2,1-kl]phenoxazine-2-carboxylic acid]
IC50 (Human topoisomerase I): 7.8 to 15.6 µM

CCOC(=O)c1cn2c3c(c(F)c(F)cc3c1=O)Oc1cc(C(F)(F)F)ccc1-2 [Compound 6c, Ethyl 5,6-difluoro-3-oxo-9-(trifluoromethyl)-3H–pyrido[3,2,1-kl]phenoxazine-2-carboxylate]
IC50 (E. coli topoisomerase I; pIC50, experimental, pIC50 = – logIC50, E. coli topoisomerase I): > 125 µM

CC(=O)c1ccc2c(c1)Oc1c(F)c(F)cc3c(=O)c(C(=O)O)cn-2c13 [Compound 7d, 9-Acetyl-5,6-difluoro-3-oxo-3H–pyrido[3,2,1-kl] phenoxazine-2-carboxylic acid]
fold less active than 1 against E. coli topoisomerase I (E. coli topoisomerase I): 8–16 fold

Nc1ccc2c(c1)Oc1c(N3CC[C@@H](N)C3)c(F)cc3c(=O)c(C(=O)O)cn-2c13 [Compound 17b, (R)-9-amino-6-(3-aminopyrrolidin-1-yl)-5-fluoro-3-oxo-3H–pyrido[3,2,1-kl]phenoxazine-2-carboxylic acid]
MIC (E. coli (MG1655) WT): > 200 µM

O=C(O)c1cn2c3c(c(F)c(F)cc3c1=O)Oc1cc([N+](=O)[O-])c(Cl)cc1-2 [Compound 7e, 10-Chloro-5,6-difluoro-9-nitro-3-oxo-3H–pyrido[3,2,1-kl]phenoxazine-2-carboxylic acid]
fold less active than 1 against E. coli topoisomerase I (E. coli topoisomerase I): 8–16 fold
